This passage reports IC50 results from BindingDB's records for patent US12209085 (Sunshine Lake Pharma Co., 2025).

Molecules are shown by their SMILES.

Common to all, as to test: Inhibitory Activity Assay
The target in assay [1] is Proto-oncogene tyrosine-protein kinase receptor Ret (Homo sapiens, UniProt P07949).
In assay [2] the target is Proto-oncogene tyrosine-protein kinase receptor Ret [V804M] (Human, UniProt P07949, V804M).
The target in assay [3] is Coiled-coil domain-containing protein 6/Proto-oncogene tyrosine-protein kinase receptor Ret (Homo sapiens, UniProt P07949).
Assay [4] addresses Proto-oncogene tyrosine-protein kinase receptor Ret [M918T] (Homo sapiens, UniProt P07949, M918T).
In assay [5] the target is Proto-oncogene tyrosine-protein kinase receptor Ret [V804L] (Homo sapiens, UniProt P07949, V804L).
Chain of Proto-oncogene tyrosine-protein kinase receptor Ret [V804L] (P07949 29-1114 V804L limits assumed): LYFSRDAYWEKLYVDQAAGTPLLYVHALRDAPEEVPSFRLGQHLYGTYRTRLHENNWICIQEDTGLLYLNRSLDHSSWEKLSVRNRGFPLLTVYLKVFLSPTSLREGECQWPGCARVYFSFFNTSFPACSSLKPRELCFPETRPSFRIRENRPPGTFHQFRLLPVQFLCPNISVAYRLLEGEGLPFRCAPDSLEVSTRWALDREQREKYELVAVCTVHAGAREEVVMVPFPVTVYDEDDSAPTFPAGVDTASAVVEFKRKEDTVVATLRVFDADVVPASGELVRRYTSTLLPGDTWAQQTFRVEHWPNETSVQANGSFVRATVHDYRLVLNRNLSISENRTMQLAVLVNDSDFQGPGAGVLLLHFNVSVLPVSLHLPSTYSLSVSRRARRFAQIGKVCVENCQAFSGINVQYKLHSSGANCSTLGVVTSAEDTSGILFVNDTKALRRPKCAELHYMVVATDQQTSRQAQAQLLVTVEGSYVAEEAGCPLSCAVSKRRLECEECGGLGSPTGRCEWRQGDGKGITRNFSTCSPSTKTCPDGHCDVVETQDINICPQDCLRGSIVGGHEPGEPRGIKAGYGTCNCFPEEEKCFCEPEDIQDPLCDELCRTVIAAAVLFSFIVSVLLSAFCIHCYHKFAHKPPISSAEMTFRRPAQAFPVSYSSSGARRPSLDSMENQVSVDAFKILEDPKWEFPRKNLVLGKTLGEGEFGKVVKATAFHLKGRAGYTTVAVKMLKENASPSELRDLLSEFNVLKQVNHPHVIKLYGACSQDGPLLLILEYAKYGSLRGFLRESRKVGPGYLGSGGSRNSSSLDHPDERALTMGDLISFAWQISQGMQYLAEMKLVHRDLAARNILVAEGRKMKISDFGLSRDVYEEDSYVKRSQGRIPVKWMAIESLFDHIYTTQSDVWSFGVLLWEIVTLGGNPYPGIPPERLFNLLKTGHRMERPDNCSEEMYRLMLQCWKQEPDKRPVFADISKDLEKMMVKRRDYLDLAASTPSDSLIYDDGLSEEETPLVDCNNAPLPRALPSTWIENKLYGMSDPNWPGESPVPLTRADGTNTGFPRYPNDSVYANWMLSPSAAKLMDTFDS

Chain of Proto-oncogene tyrosine-protein kinase receptor Ret [V804M] (P07949 29-1114 V804M limits assumed): as the sequence (P07949 29-1114 V804L limits assumed) above, with L776M counted along it
Chain of Proto-oncogene tyrosine-protein kinase receptor Ret (P07949 whole entry): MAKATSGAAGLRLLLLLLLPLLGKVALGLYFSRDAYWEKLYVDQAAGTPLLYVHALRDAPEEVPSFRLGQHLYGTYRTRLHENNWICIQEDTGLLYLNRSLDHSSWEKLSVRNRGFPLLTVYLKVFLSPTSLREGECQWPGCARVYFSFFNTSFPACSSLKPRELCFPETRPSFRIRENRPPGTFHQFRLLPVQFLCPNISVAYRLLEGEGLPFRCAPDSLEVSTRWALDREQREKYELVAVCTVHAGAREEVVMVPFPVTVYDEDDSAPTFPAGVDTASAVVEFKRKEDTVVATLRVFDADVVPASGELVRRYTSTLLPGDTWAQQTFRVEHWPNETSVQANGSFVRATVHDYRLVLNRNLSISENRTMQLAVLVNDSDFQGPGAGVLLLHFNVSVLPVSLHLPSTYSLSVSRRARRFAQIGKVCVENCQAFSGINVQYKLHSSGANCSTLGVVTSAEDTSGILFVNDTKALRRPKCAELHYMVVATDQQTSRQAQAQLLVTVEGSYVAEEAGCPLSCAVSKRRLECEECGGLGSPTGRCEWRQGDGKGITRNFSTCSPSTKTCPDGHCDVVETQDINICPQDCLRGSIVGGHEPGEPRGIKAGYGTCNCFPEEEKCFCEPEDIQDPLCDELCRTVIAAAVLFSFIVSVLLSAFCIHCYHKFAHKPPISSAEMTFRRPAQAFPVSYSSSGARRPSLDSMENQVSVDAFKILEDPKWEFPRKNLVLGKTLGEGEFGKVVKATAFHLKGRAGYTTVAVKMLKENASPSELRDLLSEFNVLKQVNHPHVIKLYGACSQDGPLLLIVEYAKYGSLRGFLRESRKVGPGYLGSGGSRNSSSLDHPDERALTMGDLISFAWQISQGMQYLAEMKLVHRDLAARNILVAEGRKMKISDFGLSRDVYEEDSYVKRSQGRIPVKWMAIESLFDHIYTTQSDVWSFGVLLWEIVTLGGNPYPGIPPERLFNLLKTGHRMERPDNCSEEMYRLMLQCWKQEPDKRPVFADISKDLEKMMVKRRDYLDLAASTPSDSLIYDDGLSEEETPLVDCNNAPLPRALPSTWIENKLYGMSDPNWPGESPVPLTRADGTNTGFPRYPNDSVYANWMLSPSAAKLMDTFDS
Chain of Proto-oncogene tyrosine-protein kinase receptor Ret [M918T] (P07949 29-1114 M918T limits assumed): as the sequence (P07949 29-1114 V804L limits assumed) above, with L776V, M890T counted along it
Chain of Coiled-coil domain-containing protein 6/Proto-oncogene tyrosine-protein kinase receptor Ret (P07949 whole entry, the tested form may be a part): as the sequence (P07949 whole entry) above
Chain of Coiled-coil domain-containing protein 6/Proto-oncogene tyrosine-protein kinase receptor Ret (Q16204 whole entry, further chain, the tested form may be a part): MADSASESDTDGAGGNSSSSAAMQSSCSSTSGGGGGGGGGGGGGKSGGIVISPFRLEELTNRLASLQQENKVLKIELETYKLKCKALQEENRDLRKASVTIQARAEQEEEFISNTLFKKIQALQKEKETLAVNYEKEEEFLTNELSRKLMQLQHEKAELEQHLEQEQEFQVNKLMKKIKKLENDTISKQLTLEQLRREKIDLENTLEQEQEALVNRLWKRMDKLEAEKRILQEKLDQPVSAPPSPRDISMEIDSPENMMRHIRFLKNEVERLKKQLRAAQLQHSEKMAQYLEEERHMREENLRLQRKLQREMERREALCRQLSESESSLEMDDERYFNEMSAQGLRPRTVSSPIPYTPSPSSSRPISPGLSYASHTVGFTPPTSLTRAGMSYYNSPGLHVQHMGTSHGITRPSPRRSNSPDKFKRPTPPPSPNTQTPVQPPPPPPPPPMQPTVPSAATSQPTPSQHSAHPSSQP

As usually defined, the IC50 is the point on the concentration scale where inhibition reaches its midpoint. A low value points to higher potency. Consider `C#Cc1ncc(CN2C3CC2CN(c2ccc(-c4cc(-c5cnn(C)c5)cn5ncc(C#N)c45)cn2)C3)cc1F` [US12209085, Example 227], for which the IC50 in assay [1] was 0.13 nM; in assay [2], 0.3 nM.

Turning to `C#Cc1ccc(CN2C3CC2CN(c2ccc(-c4cc(-c5cnn(C)c5)cn5ncc(C#N)c45)cn2)C3)cn1` [US12209085, Example 186], the IC50 in assay [1] was 0.17 nM; in assay [2] it was 0.76 nM.

In the case of `C#CC#CCN1C2CC1CN(c1ccc(-c3cc(-c4cnn(C)c4)cn4ncc(C#N)c34)cn1)C2` [US12209085, Example 276], the IC50 in assay [1] is 0.39 nM; in assay [2], 1.08 nM.

`C#Cc1cccc(C(=O)NC2CCN(c3ccc(-c4cc(-c5cnn(C)c5)cn5ncc(C#N)c45)cn3)CC2)c1` [US12209085, Example 268]: the IC50 came to 3.16 nM in assay [3]; 2.69 nM in assay [1]; 1.92 nM in assay [4]; 2.35 nM in assay [5]; 30.8 nM in assay [2].
